Measurements reported in patent US7868013B2, “Cycloalkyl substituted pyrimidinediamine compounds and their uses” (Rigel Pharmaceuticals, Inc., priority 2004, dated 2011).
Counter-ions that a name gives are not always drawn. Like-named read-outs stand apart in the source and are kept apart here.

Assays:
[1] = test system: H1299 (non-small cell lung carcinoma); experiment: In vitro antiproliferation assay, H1299 cells (TABLE 1 6 point assay; TABLE 2); format: cell-based; conditions: Homo sapiens
Procedure: (§1) Certain compounds were tested against other cell types for their ability to inhibit proliferation in standard antiproliferation assays.

[2] = test system: A549 (lung carcinoma); experiment: In vitro antiproliferation assay, A549 cells (TABLE 1 6 point assay; TABLE 2); format: cell-based
Procedure: as §1

[3] = NCI-H1299, H1299 cells, 6 point assay, read-out: H1299, 6pt (IC50, inhibition of proliferation)
[4] = Homo sapiens, A549, A549 cells, 6 point assay, read-out: A549, 6pt (IC50, inhibition of proliferation)
[5] = NCI-H1299, 6 point assay, H1299 cells, read-out: IC50, H1299 cells
[6] = Homo sapiens, A549, 6 point assay, A549 cells, read-out: IC50, A549 cells

| IC50 [1, 3] | IC50 [2, 4] | IC50 [1, 5] | IC50 [2, 6] | IC50 ([2]; 6 point assay, A549 cells, read-out: IC50, A549 cells) | SMILES |
| --- | --- | --- | --- | --- | --- |
| ≤ 100 nM | ≤ 100 nM | – | – | – | CNC(=O)C1C2C=CC(C2)C1Nc1nc(Nc2ccc(N3CCN(C)CC3)c(C)c2)ncc1F (racemic) [compound 166, Racemic-(2-exo,3-exo)-N4-[3-(N-methyl)aminocarbonylbicyclo[2.2.1]hept-5-en-2-yl)-5-fluoro-N2-[3-methyl-4-(4-methylpiperazin-1-yl)phenyl]-2,4-pyrimidinediamine] |
| ≤ 100 nM | ≤ 100 nM | – | – | – | CCNC(=O)C1C2C=CC(C2)C1Nc1nc(Nc2ccc(N3CCN(C)CC3)c(C)c2)ncc1F (racemic) [compound 167, Racemic-(2-exo,3-exo)-N4-[3-(N-ethyl)aminocarbonylbicyclo[2.2.1]hept-5-en-2-yl]-5-fluoro-N2-[3-methyl-4-(4-methylpiperazin-1-yl)phenyl]-2,4-pyrimidinediamine] |
| ≤ 100 nM | ≤ 100 nM | – | – | – | CCCNC(=O)C1C2C=CC(C2)C1Nc1nc(Nc2ccc(N3CCN(C)CC3)c(C)c2)ncc1F (racemic) [compound 168, Racemic-(2-exo,3-exo)-5-fluoro-N2-[4-(4-methylpiperazin-1-yl)-3-methylphenyl]-N4-[3-(N-n-propyl)aminocarbonylbicyclo[2.2.1]hept-5-en-2-yl]-2,4-pyrimidinediamine] |
| 100 to 1000 nM | ≤ 100 nM | – | – | – | CN(C)CCn1ccc2ccc(Nc3ncc(F)c(NC4C5C=CC(C5)C4C(=O)NC4CC4)n3)cc21 (racemic) [compound 169, Racemic-(2-exo,3-exo)-N4-[3-cyclopropylaminocarbonylbicyclo[2.2.1]hept-5-en-2-yl)-N2-[1-(2-dimethylaminoethyl)indol-6-yl]-5-fluoro-2,4-pyrimidinediamine] |
| ≤ 100 nM | ≤ 100 nM | – | – | – | CN(C)CCN1CCc2cc(Nc3ncc(F)c(NC4C5C=CC(C5)C4C(=O)NC4CC4)n3)ccc21 (racemic) [compound 170, Racemic-(2-exo,3-exo)-N4-[3-cyclopropylaminocarbonylbicyclo[2.2.1]hept-5-en-2-yl)-N2-[1-(2-dimethylaminoethyl)-2,3-dihydroindol-5-yl]-5-fluoro-2,4-pyrimidinediamine] |
| 100 to 1000 nM | 100 to 1000 nM | – | – | – | CN(C)CCN1CCc2cc(Nc3ncc(F)c(NC4C5C=CC(C5)C4C(N)=O)n3)ccc21 (racemic) [compound 171, Racemic-(2-exo, 3-exo)-N4-(3-aminocarbonylbicyclo[2.2.1]hept-5-en-2-yl)-5-fluoro-N2-[N-(2-dimethylaminoethyl)-2,3-dihydro-indol-5-yl]-2,4-pyrimidinediamine Bis Hydrogen Chloride Salt] |
| 100 to 1000 nM | 100 to 1000 nM | – | – | – | CN1CCc2cc(Nc3ncc(F)c(NC4C5C=CC(C5)C4C(N)=O)n3)ccc21 (racemic) [compound 174, Racemic-(2-exo,3-exo)-N4-[3-aminocarbonylbicyclo[2.2.1]hept-5-en-2-yl)-5-fluoro-N2-(1-methy-2,3-dihydrolindol-5-yl)-2,4-pyrimidinediamine] |
| ≤ 100 nM | ≤ 100 nM | – | – | – | CN(C)CCn1ccc2cc(Nc3ncc(F)c(NC4C5C=CC(C5)C4C(=O)NC4CC4)n3)ccc21 (racemic) [compound 175, Racemic-(2-exo,3-exo)-N4-[3-cyclopropylaminocarbonylbicyclo[2.2.1]hept-5-en-2-yl)-N2-[1-(2-dimethylaminoethyl)indol-5-yl]-5-fluoro-2,4-pyrimidinediamine] |
| ≤ 100 nM | ≤ 100 nM | – | – | – | CN(C)CCN1CCc2cc(Nc3ncc(F)c(NC4C5C=CC(C5)C4C(=O)NC4CCC4)n3)ccc21 (racemic) [compound 176, Racemic-(2-exo,3-exo)-N4-[3-cyclobutylaminocarbonylbicyclo[2.2.1]hept-5-en-2-yl)-N2-[1-(2-dimethylaminoethyl)-2,3-dihydroindol-5-yl]-5-fluoro-2,4-pyrimidinediamine] |
| 100 to 1000 nM | ≤ 100 nM | – | – | – | CNC(=O)C1C2C=CC(C2)C1Nc1nc(Nc2ccc3c(c2)CCN3CCN(C)C)ncc1F (racemic) [compound 177, Racemic-(2-exo,3-exo)-N2-[1-(2-dimethylaminoethyl)-2,3-dihydroindol-5-yl]-5-fluoro-N4-[3-N-methylaminocarbonylbicyclo[2.2.1]hept-5-ene-2-yl]-2,4-pyrimidinediamine] |
| ≤ 100 nM | ≤ 100 nM | – | – | – | CN(C)CCN1CCc2cc(Nc3ncc(F)c(NC4C5CCC(C5)C4C(=O)NC4CC4)n3)ccc21 (racemic) [compound 178, Racemic-(2-exo,3-exo)-N4-[3-cyclopropylaminocarbonylbicyclo[2.2.1]hept-2-yl)-N2-[1-(2-dimethylaminoethyl)-2,3-dihydro-indol-5-yl]-5-fluoro-2,4-pyrimidinediamine] |
| 100 to 1000 nM | 100 to 1000 nM | – | – | – | CN(C)CCn1ccc2ccc(Nc3ncc(F)c(NC4C5CCC(C5)C4C(=O)NC4CC4)n3)cc21 (racemic) [compound 179, Racemic-(2-exo,3-exo)-N4-[3-cyclopropylaminocarbonylbicyclo[2.2.1]hept-2-yl)-N2-[1-(2-dimethylaminoethyl)indol-6-yl]-5-fluoro-2,4-pyrimidinediamine] |
| ≤ 100 nM | ≤ 100 nM | – | – | – | CS(=O)(=O)N1CCc2cc(Nc3ncc(F)c(NC4C5CCC(C5)C4C(=O)NC4CC4)n3)ccc21 (racemic) [compound 180, Racemic-(2-exo,3-exo)-N4-[3-cyclopropylaminocarbonylbicyclo[2.2.1]hept-2-yl)-5-fluoro-N2-[1-methylsulfonyl-2,3-dihydro-indol-5-yl]-2,4-pyrimidinediamine] |
| ≤ 100 nM | ≤ 100 nM | – | – | – | CNC(=O)C1C2C=CC(C2)C1Nc1nc(Nc2ccc3c(c2)CCN3S(C)(=O)=O)ncc1F (racemic) [compound 181, Racemic-(2-exo,3-exo)-5-fluoro-N4-[3-methylaminocarbonylbicyclo[2.2.1]hept-5-en-2-yl)-N2-[1-methylsulfonyl-2,3-dihydroindol-5-yl]-2,4-pyrimidinediamine] |
| ≤ 100 nM | ≤ 100 nM | – | – | – | CCNC(=O)C1C2C=CC(C2)C1Nc1nc(Nc2ccc3c(c2)CCN3S(C)(=O)=O)ncc1F (racemic) [compound 182, Racemic-(2-exo,3-exo)-N4-[3-ethylaminocarbonylbicyclo[2.2.1]hept-5-en-2-yl)-5-fluoro-N2-[1-methylsulfonyl-2,3-dihydro-indol-5-yl]-2,4-pyrimidinediamine] |
| ≤ 100 nM | ≤ 100 nM | – | – | – | CNC(=O)C1C2C=CC(C2)C1Nc1nc(Nc2ccc3c(ccn3CCN(C)C)c2)ncc1F (racemic) [compound 183, Racemic-(2-exo,3-exo)-N2-[1-(2-dimethylaminoethyl)indol-5-yl]-5-fluoro-N4-[3-methylaminocarbonylbicyclo[2.2.1]hept-5-en-2-yl)-2,4-pyrimidinediamine] |
| ≤ 100 nM | ≤ 100 nM | – | – | – | CCNC(=O)C1C2C=CC(C2)C1Nc1nc(Nc2ccc3c(c2)OCCN3CCN(C)C)ncc1F (racemic) [compound 184, Racemic-(2-exo,3-exo)-N4-[3-N-ethylminocarbonylbicyclo[2.2.1]hept-5-en-2-yl)-5-fluoro-N2-{1-[2-(dimethylamino)ethyl]-3,4-dihydro-4H-benz[1,4]oxazin-6-yl}-2,4-pyrimidinediamine] |
| – | – | 100 to 1000 nM | 100 to 1000 nM | – | COCc1cc(Nc2ncc(F)c(N[C@H]3CCC[C@H]3C(N)=O)n2)ccc1N1CCN(C)CC1 (racemic) [compound 216, Racemic-cis-N4-(2-aminocarbonylcyclopent-1-yl)-5-fluoro-N2-[4-(4-methylpiperazin-1-yl)-3-methoxymethylenephenyl]-2,4-pyrimidinediamine] |
| – | – | 1000 to 10000 nM | 100 to 1000 nM | – | CN1CCN(c2ccc(Nc3ncc(F)c(N[C@H]4CCC[C@H]4C(N)=O)n3)cc2CO)CC1 (racemic) [compound 217, Racemic-cis-N4-(2-aminocarbonylcyclopent-1-yl)-5-fluoro-N2-[3-hydroxymethylene-4-(4-methylpiperazin-1-yl)phenyl]-2,4-pyrimidinediamine] |
| – | – | 1000 to 10000 nM | 1000 to 10000 nM | – | COC(=O)[C@@H]1CCC[C@@H]1Nc1nc(Nc2ccc(N3CCN(C)CC3)c(C)c2)ncc1F (racemic) [compound 218, Racemic-cis-5-fluoro-N2-[3-methyl-4-(4-methylpiperazin-1-yl)phenyl]-N4-(2-methoxycarbonylcyclopent-1-yl)-2,4-pyrimidinediamine] |
| – | – | 1000 to 10000 nM | – | 100 to 1000 nM | Cc1cc(Nc2ncc(F)c(N[C@H]3CCCC[C@H]3C(N)=O)n2)ccc1N1CCN(C)CC1 (racemic) [compound 223, Racemic-cis-N4-(2-aminocarbonylcyclohex-1-yl)-5-fluoro-N2-[3-methyl-4-(4-methylpiperazin-1-yl)phenyl]-2,4-pyrimidinediamine] |
| – | – | 1000 to 10000 nM | 1000 to 10000 nM | – | Cc1cc(Nc2ncc(F)c(N[C@H]3C=CCC[C@H]3C(N)=O)n2)ccc1N1CCN(C)CC1 (racemic) [compound 227, Racemic-cis-N4-(2-aminocarbonylcyclohex-5-ene-1-yl)-5-fluoro-N2-[3-methyl-4-(4-methylpiperazin-1-yl)phenyl]-2,4-pyrimidinediamine] |
| – | – | > 10000 nM | > 10000 nM | – | Cc1cc(Nc2ncc(F)c(N[C@@H]3CC=CC[C@H]3C(N)=O)n2)ccc1N1CCN(C)CC1 (racemic) [compound 229, Racemic-N4-(2-aminocarbonylcyclohex-4-ene-1-yl)-5-fluoro-N2-[3-methyl-4-(4-methylpiperazin-1-yl)phenyl]-2,4-pyrimidinediamine] |
